Measurements as given in patent US20260376293A1, “METHODS FOR STUDYING GPR158 PHARMACOLOGY AND IDENTIFICATION OF ITS LIGANDS” (UNIVERSITY OF FLORIDA RESEARCH FOUNDATION, INCORPORATED, priority 2022, published 2026).

Molecular target: T1, GPR158 E271A mutant (Homo sapiens, UniProt Q5T848, E271A)
T1 construct: glycine site in Cache domain
T1 sequence (Q5T848 24-1215 E271A): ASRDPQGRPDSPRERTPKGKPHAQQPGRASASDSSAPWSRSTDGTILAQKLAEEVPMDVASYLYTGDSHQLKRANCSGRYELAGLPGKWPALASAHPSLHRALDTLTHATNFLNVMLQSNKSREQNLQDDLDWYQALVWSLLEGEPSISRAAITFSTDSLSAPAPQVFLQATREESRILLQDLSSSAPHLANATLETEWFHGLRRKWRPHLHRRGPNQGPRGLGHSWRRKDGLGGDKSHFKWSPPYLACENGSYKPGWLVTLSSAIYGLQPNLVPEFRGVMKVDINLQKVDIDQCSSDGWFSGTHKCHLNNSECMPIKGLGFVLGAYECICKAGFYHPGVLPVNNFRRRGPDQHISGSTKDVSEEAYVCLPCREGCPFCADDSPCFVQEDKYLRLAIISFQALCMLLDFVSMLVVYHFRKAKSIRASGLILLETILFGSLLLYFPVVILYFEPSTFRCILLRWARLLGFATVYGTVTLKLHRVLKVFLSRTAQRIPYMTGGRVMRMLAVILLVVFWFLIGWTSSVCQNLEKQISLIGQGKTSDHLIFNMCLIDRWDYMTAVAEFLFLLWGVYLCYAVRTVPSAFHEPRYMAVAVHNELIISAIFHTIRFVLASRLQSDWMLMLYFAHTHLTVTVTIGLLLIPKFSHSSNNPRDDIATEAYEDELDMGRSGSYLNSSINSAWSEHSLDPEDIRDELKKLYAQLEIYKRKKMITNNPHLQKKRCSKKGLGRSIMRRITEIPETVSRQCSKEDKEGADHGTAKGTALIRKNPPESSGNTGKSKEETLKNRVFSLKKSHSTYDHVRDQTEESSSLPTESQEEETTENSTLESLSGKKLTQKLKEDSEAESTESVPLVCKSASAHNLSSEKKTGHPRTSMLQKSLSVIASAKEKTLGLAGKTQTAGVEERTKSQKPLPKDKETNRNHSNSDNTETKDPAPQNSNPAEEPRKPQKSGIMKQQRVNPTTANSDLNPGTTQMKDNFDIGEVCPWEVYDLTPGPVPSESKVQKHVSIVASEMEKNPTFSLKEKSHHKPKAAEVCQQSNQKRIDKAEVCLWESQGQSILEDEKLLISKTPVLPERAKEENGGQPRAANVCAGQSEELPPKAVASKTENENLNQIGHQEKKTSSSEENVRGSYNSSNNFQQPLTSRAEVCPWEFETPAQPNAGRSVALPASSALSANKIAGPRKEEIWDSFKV
Experiment: Radioligand binding assay on GPR158 mutant E271A
Excerpt: FIGS. 11A-11G. Probing Cache domain of GPR158 as a ligand binding site A) Computational docking of glycine into putative ligand binding pocket on GPR158 Cache domain. Glycine and directly interacting residues are shown as sticks. Hydrogen bonds and van der Waals interactions are shown as dotted lines. B) Diagram showing interactions in the docked model of glycine against GPR158 Cache domain. Hydrogen bonds are shown as dashed lines, van der Waals interactions are shown as intersecting semicircles, and the secondary structural context of Ser266 and Tyr269 is shown as an arc. Dagger indicates a residue implicated in glycine binding in 11A. C) Radioligand binding assay of ^3H-glycine in cells expressing GPR158 mutants. Data shown mean±s.e.m. of 3 independent experiments, *p<0.05, ns=p>0.05 one-way ANOVA. D) Functional evaluation of GPR158 mutants in GAP BRET assay. Error bars are mean±s.e.m. of 3 independent experiments in triplicate. *p<0.05, **p<0.01, ***p<0.001, ****p<0.0001, ns=p>0.05, two-way ANOVA Columns with no fill (Ctrl), columns with angled-line fill (Glycine) E) Quantification of glycine inhibitory effect on kGAP normalized to the effect seen with WT receptor. […]
Whole cell binding was performed using cDNA of GPR158-venus or each GPR158-venus mutant or empty pcDNA3.1+ for ctrl cells. […] Finally radioactivity was measured using the liquid scintillation analyzer Tri-Carb 4910 TR.

- [^3H]-glycine binding: near complete loss
Compound: NCC(=O)O [^3H-glycine, [^3H]-glycine]
